Where two headings read alike, the source gives them in different places.
Key:
[1] = tested on: human sebocytes (sebaceous cells); experiment: inhibition of human sebocyte proliferation in vitro; type: cell-based; conditions: for IC50: read-out: ED50 (amount of compound necessary to inhibit the proliferation of the sebaceous cells by 50% as compared to a control)
Experimental: Sebaceous cells were isolated from adult human sebaceous glands as in J. Invest. Dermatol. 96:341-348 (1991) and cultured on a layer of growth-arrested 3T3 mouse fibroblasts.
The cells were cultured in Iscove's medium containing 10% fetal calf serum and 4 μg/ml dexamethasone.
Cells were plated in medium without 1α-fluoro-25-hydroxy-16-ene-23-yne-cholecalciferol. 24-48 hours after the initial plating, the cultures were given fresh medium containing the compound of the invention. Every 48 hours, the cultures were given fresh medium containing the compound of the invention. On the day of harvesting, the cultures were rinsed with a 0.03% EDTA in PBS, to remove only the 3T3 fibroblasts. The remaining sebocyyte colonies were incubated in 0.05% trypsin/0.03% EDTA to create a single cell suspension of sebocytes. The cells were diluted, mixed vigorously to maintain a single cell suspension, and counted in a hemocytometer.
The compounds tested were handled in the following manner. Stock solutions were made up as 10^-2 M solutions in degassed 100% ethanol and stored at -20° C. in the dark. Solutions were never used after storage of more than one month. During experimental use the solutions, which were aliquoted, were thawed once and used by diluting directly into complete medium to the appropriate concentration, at 10^-6, 10^-7, 10^-8 M and 10^-9. The compounds tested were
The results are summarized in table 1 as the amount of compound necessary to inhibit the proliferation of the sebaceous cells by 50% as compared to a control (ED50). The control was a culture treated with diluent only.

[2] = tested on: sebaceous glands in ears of the male Syrian hamster; conditions: cited from earlier work
[3] = tested on: hamster ear sebaceous gland; experiment: hamster ear sebaceous gland model, topical study; type: in vivo; conditions: 4 weeks, vs control
Experimental: The compound was evaluated for topical anti-acne activity in the hamster ear sebaceous gland model. For these studies, the compound was dissolved in acetone. Fifty (50) μl of the drug-containing solution was applied daily (5 days per week) to the dorsal side of the right ear of the hamster. Control hamsters received 50 μl of acetone. The animals were sacrificed after 4 weeks. The ears were removed and processed for histological evaluation. The ventral surface was separated from the rest of the ear. A 2 mm punch was removed 5 mm from the tip of the ear and stained in 0.1% Sudan Black B dissolved in 100% propylene glycol overnight. After destaining, the areas of the sebaceous glands were determined from the cross sections by image analysis using a Donsato Image Analysis System. The data was expressed as a percentage change from control animals for 80-120 sebaceous glands per dose.

[4] = tested on: hamster ear sebaceous gland; experiment: hamster ear sebaceous gland model, oral study; type: in vivo, male Golden Syrian hamsters; conditions: 4 weeks
Experimental: The purpose of the test was to evaluate the effect of the inventive compound on the sebaceous glands of the hamster ear after oral administration of the compound. 200 μl of the compound of the invention dissolved in Tween 20/water/ethanol […] administered daily (5 days per week) by garage to male Golden Syrian hamsters. The animals were sacrificed at 4 weeks and the ears were processed for histological evaluation. One ear was fixed with 10% buffered formalin, processed for paraffin embedding, sectioned, and stained with hematoxyline and eosin (H&E). The area of the sebaceous glands was measured on histologically prepared cross-sections of the ear by image analysis using a Leitz TAS Plus system. Data is given as the average areas of 48 sebaceous glands per dose.

SMILES	IC50 ([1]; Homo sapiens) [nM]	size of sebaceous glands in ears (result in words) [2]	Change in Hamster Ear Sebaceous Gland Size Cross Section Analysis ([3]; 0.001 μg/animal, ns = not statistically significant from controls) [%]	Change in Hamster Ear Sebaceous Gland Size Cross Section Analysis ([3]; 0.01 μg/animal, ns = not statistically significant from controls) [%]	Change in Hamster Ear Sebaceous Gland Size Cross Section Analysis ([3]; 0.1 μg/animal, ns = not statistically significant from controls) [%]	Change in Hamster Ear Sebaceous Gland Size Cross Section Analysis ([3]; 1.0 μg/animal, not marked ns) [%]	IC50 ([1]; human sebocytes in vitro, control treated with diluent only) [nM]	human sebocyte proliferation in vitro (result in words) ([1]; in vitro)	% Change in Hamster Ear Sebaceous Gland Size Cross Section Analysis ([4]; 0.05 μg/kg) [%]	% Change in Hamster Ear Sebaceous Gland Size Cross Section Analysis ([4]; 0.5 μg/kg) [%]	% Change in Hamster Ear Sebaceous Gland Size Cross Section Analysis ([4]; 5.0 μg/kg) [%]	% Change in Hamster Ear Sebaceous Gland Size Cross Section Analysis ([4]; 50.0 μg/kg) [%]
C=C1/C(=C\C=C2/CCC[C@]3(C)[C@@H]([C@H](C)CCCC(C)(C)O)CC[C@@H]23)C[C@@H](O)C[C@@H]1O [1,25-dihydroxycholecalciferol, reference compound]	50	reducing the size of sebaceous glands in ears of the male Syrian hamster										
C=C1/C(=C\C=C2/CCC[C@]3(C)C([C@H](C)CC#CC(C)(C)O)=CC[C@@H]23)C[C@@H](O)C[C@@H]1F [1α-fluoro-25-hydroxy-16-ene-23-yne-cholecalciferol]			-3	-18	-28	-40	1	inhibits human sebocyte proliferation in vitro	-28	-28	-34	-35

From US5384314A, “1α-fluoro-25-hydroxy-16-ene-23-yne-cholecalciferol” (Hoffmann-La Roche Inc., priority 1994, dated 1995)
